Key:
[1] = biological target: dephosphorylated FGFR1 (Homo sapiens (Human), UniProt P11362); assay: FGFR Enzyme Binding Assay (HTRF tracer displacement), FGFR1; settings: 5 nM dephosphorylated FGFR1, 60 minute incubation at 22° C.; read-out: FGFR1 Enz Binding IC50
Protocol: (§1) The potency of compounds inhibiting human isoforms of FGFR kinase was determined using Life Technologies' Homogeneous Time Resolved Fluorescence (HTRF)-based binding assay technology. An incubation was conducted with either 5 nM dephosphorylated FGFR1 (Array Biopharma, p1702; SEQ ID NO: 1, amino acids 458 to 765, dephosphorylated by co-expression with PTP1b (protein tyrosine phosphatase 1B)), 5 nM dephosphorylated FGFR2 (Life Technologies, Cat. No. PV4106 that had been dephosphorylated with Lambda protein phosphatase (New England Biolabs, cat #P0753)) or 5 nM phosphorylated FGFR3 (Array Biopharma, p1836; SEQ ID NO: 5, amino acids 449 to 759), 50 nM Kinase Tracer 236 (Life Technologies Cat. No. PR9078A), 2 nM Biotin-anti-6HIS (Life Technologies Cat. No. PV6090) and 2 nM Europium-Streptavidin (Life Technologies Cat. No. PV6025) along with test compound in a buffer consisting of 50 mM HEPES ((4-(2-hydroxyethyl)-1-piperazineethanesulfonic acid, pH 7.5), 5 mM MgCl2, 0.005% Triton X-100, 1 mM DTT, 1 mM NaVO4 and 2% DMSO in a final volume of 12 μL Compounds were typically prepared as a 3-fold or 4-fold serial dilution in DMSO and added to the assay to give the appropriate final concentration. After a 60 minute incubation at 22° C., the extent of tracer displacement was determined using a PerkinElmer EnVision multimode plate reader via HTRF dual wavelength detection, and the percent of control (POC) was calculated using a ratiometric emission factor. One hundred POC was determined using no test compound, and 0 POC was determined in the presence of 1 μM of an appropriate control inhibitor. A 4-parameter logistic curve was fit to the POC values as a function of the concentration of compound, and the IC50 value was the point where the best-fit curve crossed 50 POC.

[2] = biological target: phosphorylated FGFR3 (Homo sapiens (Human), UniProt P22607); assay: FGFR Enzyme Binding Assay (HTRF tracer displacement), FGFR3; settings: 5 nM phosphorylated FGFR3, 60 minute incubation at 22° C.; read-out: FGFR3 Enz Binding IC50
Protocol: as §1

[3] = biological target: recombinant human FGFR2 cytoplasmic domain (Homo sapiens (Human), UniProt P21802); assay: FGFR Enzyme Activity Assay (LanthaScreen TR-FRET), FGFR2; type: biochemical; settings: 15 μM ATP, 20 minute incubation; read-out: FGFR2 Enz FRET IC50
Protocol: FGFR2 kinase activity was measured by the Invitrogen LanthaScreen™ Assay technology which directly measures the amount of substrate phosphorylation by TR-FRET using a flourescently-labeled peptide and Europium-labeled antibody. Briefly, 200 pM His-tagged recombinant human FGFR2 cytoplasmic domain (amino acids 403-822) (Life Technologies Cat. No. PR5332A) was incubated with 100 nM Alexa Fluor® 647-Poly-GT Peptide Substrate (Life Technologies Cat. No. PV5836) and 15 μM ATP along with test compound in a buffer consisting of 250 mM HEPES, 25 mM MgCl2, 0.05% TritonX-100, pH 7.5, and 2% DMSO. Compounds were typically prepared in a threefold serial dilution in DMSO and added to the assay to give the appropriate final concentration. After a 20 minute incubation at 22° C., an equal volume of 2 nM LanthaScreen® Eu-PY20 Antibody (Life Technologies Cat. No. PV5691) and 10 mM EDTA were added to quench the kinase reaction and start the detection reaction. After an additional 60 minute incubation at 22° C., the reaction was measured using a PerkinElmer EnVision multimode plate reader via TR-FRET dual wavelength detection, and the percent of control (POC) calculated using a ratiometric emission factor. 100 POC was determined using no test compounds and 0 POC was determined using no enzyme. The POC values were fit to a 4-parameter logistic curve as a function of the concentration of the compound, and the IC50 value is the point where the curve crosses 50 POC.

[4] = biological target: human wild type FGFR1 (Homo sapiens (Human), UniProt P11362); assay: FGFR1 pERK Cell Assay; type: cell-based; settings: HEK-293 cells, 1 hour compound, 100 ng/ml human FGF-acidic; maximum concentration 5 μM
Protocol: HEK-293 cells transfected with doxycycline(dox)-inducible human wild type FGFR1 (SEQ ID NO: 1) were plated in a collagen or poly-D-lysine coated 96 well flat bottom plates at 4×10^5 cells/well in complete Dulbecco's Modified Eagle Medium (DMEM) containing 10% FBS and 1 μg/ml doxycycline and allowed to attach for 24 h at 37° C., 5% CO2. Cells were treated with compound using 1:3 serial dilutions with a maximum final concentration of 5 μM. Compound was incubated on cells for 1 hour at 37° C., 5% CO2. Cells were then stimulated with a final concentration of 100 ng/ml human FGF-acidic (R&D Systems Cat number 232-FA/CF) for 5 minutes at 37° C., 5% CO2. Medium was removed, and cells were lysed with lysis buffer containing phosphatase and protease inhibitors. Phospho ERK1/2 was measured using the Meso Scale Discovery sandwich assay (Meso Scale Discovery cat. no. K151DWD). The assay captures phospho ERK1/2 and detects with a sulfo-tagged total ERK1/2 antibody. The chemiluminescent signal was read on the Sector Imager Plate reader. 100 POC was determined using no test compound and 0 POC was determined using a control compound. The POC values were fit to a 4-parameter logistic curve as a function of the concentration of the compound, and the IC50 value is the point where the curve crosses 50 POC.

phosphorylated FGFR3, sequence (P22607 449-759): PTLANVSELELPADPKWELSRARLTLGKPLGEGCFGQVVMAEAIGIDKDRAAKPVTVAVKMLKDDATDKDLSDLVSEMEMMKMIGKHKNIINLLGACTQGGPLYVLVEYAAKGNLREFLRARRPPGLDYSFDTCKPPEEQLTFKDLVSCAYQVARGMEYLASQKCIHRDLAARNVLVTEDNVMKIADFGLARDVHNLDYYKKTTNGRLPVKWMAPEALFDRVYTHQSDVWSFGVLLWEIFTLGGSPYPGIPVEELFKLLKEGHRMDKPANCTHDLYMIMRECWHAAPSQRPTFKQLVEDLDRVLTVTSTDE
human wild type FGFR1, sequence (P11362 22-822): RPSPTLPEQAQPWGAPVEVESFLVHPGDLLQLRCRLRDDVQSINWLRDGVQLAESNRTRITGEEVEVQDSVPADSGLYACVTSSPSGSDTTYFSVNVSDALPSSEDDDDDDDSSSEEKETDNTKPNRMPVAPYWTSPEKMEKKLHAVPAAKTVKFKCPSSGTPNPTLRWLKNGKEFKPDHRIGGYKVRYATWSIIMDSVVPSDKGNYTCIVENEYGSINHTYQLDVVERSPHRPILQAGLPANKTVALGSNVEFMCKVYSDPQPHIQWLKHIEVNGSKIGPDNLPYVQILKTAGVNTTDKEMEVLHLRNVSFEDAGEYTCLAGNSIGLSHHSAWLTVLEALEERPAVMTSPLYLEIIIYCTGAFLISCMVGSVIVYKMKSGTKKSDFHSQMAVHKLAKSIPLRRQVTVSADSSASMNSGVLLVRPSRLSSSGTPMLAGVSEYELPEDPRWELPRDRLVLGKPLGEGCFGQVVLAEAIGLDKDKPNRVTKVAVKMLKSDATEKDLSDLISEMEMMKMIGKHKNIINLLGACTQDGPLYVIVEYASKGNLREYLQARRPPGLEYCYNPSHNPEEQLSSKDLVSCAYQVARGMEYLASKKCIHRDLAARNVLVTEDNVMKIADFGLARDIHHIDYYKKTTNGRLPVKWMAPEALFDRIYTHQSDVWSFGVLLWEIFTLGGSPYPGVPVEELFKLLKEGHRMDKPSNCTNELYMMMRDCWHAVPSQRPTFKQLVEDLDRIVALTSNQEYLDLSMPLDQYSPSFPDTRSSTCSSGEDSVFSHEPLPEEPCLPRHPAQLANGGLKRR
recombinant human FGFR2 cytoplasmic domain, sequence (P21802 402-821): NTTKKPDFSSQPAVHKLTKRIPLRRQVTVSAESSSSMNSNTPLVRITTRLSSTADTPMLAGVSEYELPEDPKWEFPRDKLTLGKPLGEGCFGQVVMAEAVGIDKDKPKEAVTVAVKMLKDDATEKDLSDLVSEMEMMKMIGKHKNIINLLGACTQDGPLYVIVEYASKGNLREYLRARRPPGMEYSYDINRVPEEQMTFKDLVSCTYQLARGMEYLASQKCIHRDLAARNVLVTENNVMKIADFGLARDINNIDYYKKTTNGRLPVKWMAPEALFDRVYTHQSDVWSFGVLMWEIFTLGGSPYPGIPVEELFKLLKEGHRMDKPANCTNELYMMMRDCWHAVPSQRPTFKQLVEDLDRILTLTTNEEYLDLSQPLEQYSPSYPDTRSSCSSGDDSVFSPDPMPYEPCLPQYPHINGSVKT
dephosphorylated FGFR1, sequence (P11362 458-765): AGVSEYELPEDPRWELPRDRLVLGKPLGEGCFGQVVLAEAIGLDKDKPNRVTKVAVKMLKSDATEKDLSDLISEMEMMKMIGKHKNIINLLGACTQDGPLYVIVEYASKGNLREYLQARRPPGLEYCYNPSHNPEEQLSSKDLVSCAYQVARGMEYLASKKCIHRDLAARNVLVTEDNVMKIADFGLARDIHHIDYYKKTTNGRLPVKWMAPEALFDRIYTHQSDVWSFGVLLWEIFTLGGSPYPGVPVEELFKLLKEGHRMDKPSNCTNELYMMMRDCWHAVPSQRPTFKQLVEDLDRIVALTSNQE

Which results are given for C=CC(=O)N1CC(C(=O)N2CCC(n3cc(-c4cnc5ccc(Nc6cc(OC)cc(OC)c6)cc5n4)cn3)CC2)C1 [Example 1, 1-(3-(4-(4-(7-((3,5-dimethoxyphenyl)amino)quinoxalin-2-yl)-1H-pyrazol-1-yl)piperidine-1-carbonyl)azetidin-1-yl)prop-2-en-1-one]?
IC50 [1]: 22 nM; IC50 [2]: 2 nM; IC50 [3]: 11 nM; IC50 [4]: 507 nM

C=CC(=O)N1CC[C@@H](C(=O)N2CCC(n3cc(-c4cnc5ccc(Nc6cc(OC)cc(OC)c6)cc5n4)cn3)CC2)C1 [Example 2, (R)-1-(3-(4-(4-(7-((3,5-dimethoxyphenyl)amino)-quinoxalin-2-yl)-1H-pyrazol-1-yl)piperidine-1-carbonyl)pyrrolidin-1-yl)-prop-2-en-1-one] was tested. Which IC50 [1] did it give?
The IC50 was 24 nM.

And the IC50 [2]?
The IC50 was 4 nM.

And the IC50 [3]?
Its IC50 is 11 nM.

And the IC50 [4]?
The IC50 was 852 nM.

What does the source list for C=CC(=O)N1CCC(C(=O)N2CCC(n3cc(-c4cnc5ccc(Nc6cc(OC)cc(OC)c6)cc5n4)cn3)CC2)CC1 [Example 3, 1-(4-(4-(4-(7-((3,5-dimethoxyphenyl)amino)-quinoxalin-2-yl)-1H-pyrazol-1-yl)piperidine-1-carbonyl)piperidin-1-yl)prop-2-en-1-one]?
IC50 [1]: 26 nM; IC50 [2]: 5 nM; IC50 [3]: 12 nM; IC50 [4]: 350 nM

C=CC(=O)N1CC(F)(C(=O)N2CCC(n3cc(-c4cnc5ccc(Nc6cc(OC)cc(OC)c6)cc5n4)cn3)CC2)C1 [Example 4, 1-(3-(4-(4-(7-((3,5-dimethoxyphenyl)amino)-quinoxalin-2-yl)-1H-pyrazol-1-yl)piperidine-1-carbonyl)-3-fluoro-azetidin-1-yl)prop-2-en-1-one] was tested. Which IC50 [1] did it give?
The IC50 was 33 nM.

And the IC50 [2]?
The IC50 was 3 nM.

What about the IC50 [3] of the same molecule?
The IC50 was 40 nM.

What about the IC50 [4] of the same molecule?
The IC50 was 170 nM.

For C=CC(=O)N1CC(C(=O)N2CCN(c3ccc(-c4cnc5ccc(Nc6cc(OC)cc(OC)c6)cc5n4)cn3)CC2)C1 [Example 5, 1-(3-(4-(5-(7-((3,5-dimethoxyphenyl)amino)-quinoxalin-2-yl)pyridin-2-yl)piperazine-1-carbonyl)azetidin-1-yl)-prop-2-en-1-one], which IC50 [1] is on record?
Its IC50 is 623 nM.

What about the IC50 [2] of the same molecule?
The IC50 was 59 nM.

And the IC50 [3]?
Its IC50 is 365 nM.

What about the IC50 [4] of the same molecule?
Its IC50 is 2690 nM.

Which results are given for COc1cc(Nc2ccc3ncc(-c4ccc(N5CCN(C(=O)C6CN(C(=O)/C=C/CN(C)C)C6)CC5)nc4)nc3c2)cc(OC)c1 [Example 6, (E)-1-(3-(4-(5-(7-((3,5-dimethoxyphenyl)amino)-quinoxalin-2-yl)pyridin-2-yl)piperazine-1-carbonyl)azetidin-1-yl)-4-(dimethylamino)but-2-en-1-one]?
IC50 [1]: 132 nM; IC50 [2]: 9 nM; IC50 [3]: 124 nM; IC50 [4]: ≥ 5000 nM

How did the IC50 [1] turn out when COc1cc(Nc2ccc3ncc(-c4ccc(N5CCN(C(=O)C6(F)CN(C(=O)/C=C/CN(C)C)C6)CC5)nc4)nc3c2)cc(OC)c1 [Example 7, (E)-1-(3-(4-(5-(7-((3,5-dimethoxyphenyl)amino)-quinoxalin-2-yl)pyridin-2-yl)piperazine-1-carbonyl)-3-fluoroazetidin-1-yl)-4-(dimethylamino)but-2-en-1-one] was run?
Its IC50 is 342 nM.

What about the IC50 [2] of the same molecule?
Its IC50 is 11 nM.

What about the IC50 [3] of the same molecule?
The IC50 was 227 nM.

What about the IC50 [4] of the same molecule?
Its IC50 is 1530 nM.

C=CC(=O)N1CC(F)(C(=O)N2CCN(c3ccc(-c4cnc5ccc(Nc6cc(OC)cc(OC)c6)cc5n4)cn3)CC2)C1 [Example 8, 1-(3-(4-(5-(7-((3,5-dimethoxyphenyl)amino)-quinoxalin-2-yl)pyridin-2-yl)piperazine-1-carbonyl)-3-fluoroazetidin-1-yl)-prop-2-en-1-one] was tested. Which IC50 [1] did it give?
The IC50 was 558 nM.

And the IC50 [2]?
The IC50 was 30 nM.

What about the IC50 [3] of the same molecule?
Its IC50 is 744 nM.

What about the IC50 [4] of the same molecule?
Its IC50 is 1140 nM.

How did the IC50 [1] turn out when COc1cc(Nc2ccc3ncc(-c4cnn(C5CCN(C(=O)C6CN(C(=O)/C=C/CN(C)C)C6)CC5)c4)nc3c2)cc(OC)c1 [Example 9, (E)-1-(3-(4-(4-(7-((3,5-dimethoxyphenyl)amino)-quinoxalin-2-yl)-1H-pyrazol-1-yl)piperidine-1-carbonyl)azetidin-1-yl)-4-(dimethylamino)but-2-en-1-one] was run?
Its IC50 is 22 nM.

And the IC50 [2]?
The IC50 was 2 nM.

What about the IC50 [3] of the same molecule?
Its IC50 is 10 nM.

And the IC50 [4]?
Its IC50 is 2230 nM.

What does the source list for COc1cc(Nc2ccc3ncc(-c4cnn(C5CCN(C(=O)C6(F)CN(C(=O)/C=C/CN(C)C)C6)CC5)c4)nc3c2)cc(OC)c1 [Example 10, (E)-1-(3-(4-(4-(7-((3,5-dimethoxyphenyl)amino)-quinoxalin-2-yl)-1H-pyrazol-1-yl)piperidine-1-carbonyl)-3-fluoro-azetidin-1-yl)-4-(dimethylamino)but-2-en-1-one]?
IC50 [1]: 28 nM; IC50 [2]: 3 nM; IC50 [3]: 11 nM; IC50 [4]: 134 nM

With COc1cc(Nc2ccc3ncc(-c4cnn(C5CCN(C(=O)C6(C#N)CN(C(=O)/C=C/CN(C)C)C6)CC5)c4)nc3c2)cc(OC)c1 [Example 11, (E)-3-(4-(4-(7-((3,5-dimethoxyphenyl)amino)-quinoxalin-2-yl)-1H-pyrazol-1-yl)piperidine-1-carbonyl)-1-(4-(dimethyl-amino)but-2-enoyl)-azetidine-3-carbonitrile] as the molecule, how does the IC50 [1] read?
The IC50 was 44 nM.

What about the IC50 [2] of the same molecule?
The IC50 was 3 nM.

What about the IC50 [3] of the same molecule?
The IC50 was 15 nM.

And the IC50 [4]?
The IC50 was 149 nM.

What does the source list for C=CC(=O)N1CC(C#N)(C(=O)N2CCC(n3cc(-c4cnc5ccc(Nc6cc(OC)cc(OC)c6)cc5n4)cn3)CC2)C1 [Example 12, 1-acryloyl-3-(4-(4-(7-((3,5-dimethoxyphenyl)-amino)quinoxalin-2-yl)-1H-pyrazol-1-yl)-piperidine-1-carbonyl)-azetidine-3-carbonitrile]?
IC50 [1]: 48 nM; IC50 [2]: 3 nM; IC50 [3]: 33 nM; IC50 [4]: 149 nM

With COc1cc(Nc2ccc3ncc(-c4ccc(N5CCN(C(=O)C6(F)CN(C(=O)/C=C/CN(C)C)C6)CC5)nc4C)nc3c2)cc(OC)c1 [Example 13, (E)-1-(3-(4-(5-(7-((3,5-dimethoxyphenyl)amino)-quinoxalin-2-yl)-6-methylpyridin-2-yl)-piperazine-1-carbonyl)-3-fluoroazetidin-1-yl)-4-(dimethylamino)but-2-en-1-one] as the molecule, how does the IC50 [1] read?
The IC50 was 6620 nM.

What about the IC50 [2] of the same molecule?
The IC50 was 335 nM.

And the IC50 [3]?
Its IC50 is 1910 nM.

What does the source list for C=CC(=O)N1CC(C(=O)N2CCN(c3cccc(-c4cnc5ccc(Nc6cc(OC)cc(OC)c6)cc5n4)c3)CC2)C1 [Example 25, 1-(3-(4-(3-(7-((3,5-dimethoxyphenyl)amino)-quinoxalin-2-yl)phenyl)-piperazine-1-carbonyl)-azetidin-1-yl)prop-2-en-1-one]?
IC50 [1]: 759 nM; IC50 [2]: 327 nM; IC50 [3]: 1740 nM

Source: patent US12351571B2, “Substituted quinoxaline compounds as inhibitors of FGFR tyrosine kinases” (ARRAY BIOPHARMA INC., priority 2018, dated 2025)
